Reference: ChEMBL document CHEMBL5212743, “Selectivity Literature for EUbOPEN Chemogenomics Library wave 3” (2023)
Substitutions are numbered along the chain they refer to.

Experiments:
[1] = target: Receptor-type tyrosine-protein kinase FLT3 (Homo sapiens) (UniProt P36888); assay: (§1) Selectivity interaction (KinomeScan (DiscoverX)) EUB0000702a FLT3; conditions: at 1 µM
[2] = test system: T1, Receptor-type tyrosine-protein kinase FLT3 (Homo sapiens), P36888 [D835V]; assay: as §1; conditions: at 1 µM
T1 sequence (whole entry): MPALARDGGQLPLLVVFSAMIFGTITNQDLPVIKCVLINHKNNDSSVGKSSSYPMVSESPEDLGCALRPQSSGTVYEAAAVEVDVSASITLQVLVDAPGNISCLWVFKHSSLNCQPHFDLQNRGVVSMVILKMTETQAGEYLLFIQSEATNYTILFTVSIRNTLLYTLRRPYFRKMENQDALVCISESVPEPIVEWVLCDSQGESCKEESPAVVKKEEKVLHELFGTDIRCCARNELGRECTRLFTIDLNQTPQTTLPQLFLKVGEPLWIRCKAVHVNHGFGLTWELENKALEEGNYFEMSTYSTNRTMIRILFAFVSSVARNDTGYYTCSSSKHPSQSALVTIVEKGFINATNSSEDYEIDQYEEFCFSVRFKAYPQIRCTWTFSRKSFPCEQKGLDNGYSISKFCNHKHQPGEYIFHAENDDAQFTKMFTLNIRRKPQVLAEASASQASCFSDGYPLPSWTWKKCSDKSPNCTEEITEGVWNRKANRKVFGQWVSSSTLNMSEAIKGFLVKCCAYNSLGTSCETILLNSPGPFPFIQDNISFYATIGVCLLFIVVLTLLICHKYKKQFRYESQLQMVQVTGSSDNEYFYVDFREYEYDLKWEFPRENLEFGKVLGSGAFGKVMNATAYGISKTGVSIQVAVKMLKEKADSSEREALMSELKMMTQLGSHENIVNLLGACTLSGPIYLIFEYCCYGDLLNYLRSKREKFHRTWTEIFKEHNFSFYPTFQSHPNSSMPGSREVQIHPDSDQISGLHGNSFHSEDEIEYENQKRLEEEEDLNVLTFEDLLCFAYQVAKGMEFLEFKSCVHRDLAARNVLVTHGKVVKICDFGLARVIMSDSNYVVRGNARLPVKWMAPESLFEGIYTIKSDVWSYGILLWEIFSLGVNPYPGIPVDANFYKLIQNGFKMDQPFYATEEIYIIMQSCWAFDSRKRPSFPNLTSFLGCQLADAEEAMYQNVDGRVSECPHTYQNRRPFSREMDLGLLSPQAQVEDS

[3] = test system: T2, Receptor-type tyrosine-protein kinase FLT3 (Homo sapiens), P36888 [D835Y]; assay: as §1; conditions: at 1 µM
T2 sequence (whole entry): T1 sequence (whole entry) with V835Y

[4] = test system: T3, Receptor-type tyrosine-protein kinase FLT3 (Homo sapiens), P36888 [N841I]; assay: as §1; conditions: at 1 µM
T3 sequence (whole entry): T1 sequence (whole entry) with V835D, N841I

[5] = target: Phosphatidylinositol 4,5-bisphosphate 3-kinase catalytic subunit gamma isoform (Homo sapiens, UniProt P48736); assay: Selectivity interaction (KinomeScan (DiscoverX, competition-binding assay)) EUB0000178b PIK3CG
Phosphatidylinositol 4,5-bisphosphate 3-kinase catalytic subunit gamma isoform, sequence (P48736 whole entry, canonical isoform): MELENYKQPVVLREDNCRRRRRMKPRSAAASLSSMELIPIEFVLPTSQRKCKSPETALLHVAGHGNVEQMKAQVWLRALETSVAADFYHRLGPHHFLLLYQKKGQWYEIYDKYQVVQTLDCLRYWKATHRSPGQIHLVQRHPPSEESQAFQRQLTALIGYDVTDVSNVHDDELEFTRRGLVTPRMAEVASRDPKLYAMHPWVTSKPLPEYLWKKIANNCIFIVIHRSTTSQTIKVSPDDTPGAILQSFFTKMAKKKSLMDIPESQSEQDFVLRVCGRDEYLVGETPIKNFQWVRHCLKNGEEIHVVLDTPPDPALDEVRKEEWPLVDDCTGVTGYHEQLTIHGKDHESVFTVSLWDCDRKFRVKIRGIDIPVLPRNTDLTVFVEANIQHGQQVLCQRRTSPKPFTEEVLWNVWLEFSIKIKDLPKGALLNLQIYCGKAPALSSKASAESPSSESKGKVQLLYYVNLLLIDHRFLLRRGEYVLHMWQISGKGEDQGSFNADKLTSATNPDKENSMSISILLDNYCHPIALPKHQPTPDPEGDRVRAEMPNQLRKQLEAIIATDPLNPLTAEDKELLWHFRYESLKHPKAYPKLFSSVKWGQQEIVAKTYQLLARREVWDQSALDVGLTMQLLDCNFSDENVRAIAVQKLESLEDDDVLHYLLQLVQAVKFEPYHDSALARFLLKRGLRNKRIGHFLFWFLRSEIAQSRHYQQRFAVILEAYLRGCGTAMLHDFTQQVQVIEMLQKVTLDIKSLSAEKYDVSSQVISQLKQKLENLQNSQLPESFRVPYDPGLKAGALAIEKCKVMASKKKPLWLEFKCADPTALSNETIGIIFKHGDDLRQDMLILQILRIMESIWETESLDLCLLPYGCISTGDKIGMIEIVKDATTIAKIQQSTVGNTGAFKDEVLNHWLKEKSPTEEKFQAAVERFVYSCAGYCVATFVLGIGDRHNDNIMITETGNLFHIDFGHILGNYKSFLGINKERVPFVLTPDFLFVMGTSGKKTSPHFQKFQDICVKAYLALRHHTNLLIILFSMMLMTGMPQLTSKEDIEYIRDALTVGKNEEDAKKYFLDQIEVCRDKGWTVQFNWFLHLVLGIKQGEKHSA

Structure (SMILES) | % of control [1] [%] | % of control [2] [%] | % of control [3] [%] | % of control [4] [%] | Kd [5] [nM]
CN(c1ccnc(CNc2nc(Nc3ccc4c(c3)CC(=O)N4)ncc2C(F)(F)F)n1)S(C)(=O)=O [PF-00911705] | 5.5 | 1.5 | 2 | 0 | 
CN1C(=O)c2sccc2N(C)c2nc(Nc3ccc(S(N)(=O)=O)cc3)ncc21 |  |  |  |  | 8.4
